# Non-standard residues stand in square brackets, D forms with d. Residues, ends and D or L forms follow the SMILES beside them.
# Columns and labels:
# EMRSA-15 NCTC 13616 = format: cell-based, Staphylococcus aureus
# Procedure: (§1) Synergy was measured using standard microdilution Chequerboard assays under the same conditions as the MICs with RPMI140 + 5% FBS used alongside MHB[18]. Twofold dilution series of each peptide or antibiotic were prepared in separate 96 well plates and then combined into one before addition of bacteria. The growth/no growth interface was determined using the same definition as the MIC. The fractional inhibitory concentration was calculated from the most synergistic well on the plate for three independent repeats, and presented as above. MICs were determined on the same plates as the FICs to increase reproducibility.
# P. aeruginosa RP73 = format: cell-based, Pseudomonas aeruginosa
# Procedure: as §1
# [1] = system: Klebsiella pneumoniae NCTC 13368; format: cell-based; conditions: Supplementary Table 1; Mueller-Hinton broth; unit inferred
# Procedure: (§3) The antibacterial activity of the peptides was assessed through a modified two-fold broth microdilution assay with modal MICs generated from at least three biological replicate experiments[37]. The method broadly followed EUCAST methodology, with non-cation adjusted Mueller Hinton replacing cation-adjusted Mueller Hinton. Peptides and antibiotics were diluted in a two-fold dilution in media down a 96 well plate. Bacteria were then added, back-diluted from an overnight culture, at a starting concentration of 5 × 10^5 CFU/ml. Plates were incubated, static at 37 °C, for 20 h and the OD600 was determined using a Clariostar plate reader (BMG Labtech).
# Klebsiella pneumoniae M6 = format: cell-based; conditions: Supplementary Table 1; Mueller-Hinton broth; unit inferred
# Procedure: as §3
# [2] = system: Acinetobacter baumannii AYE; format: cell-based; conditions: Supplementary Table 1; Mueller-Hinton broth; unit inferred
# Procedure: as §3
# [3] = system: Acinetobacter baumannii ATCC 17978; format: cell-based; conditions: Supplementary Table 1; Mueller-Hinton broth; unit inferred
# Procedure: as §3
# [4] = system: Pseudomonas aeruginosa PAO1; format: cell-based; conditions: Supplementary Table 1; Mueller-Hinton broth; unit inferred
# Procedure: as §3
# [5] = system: Pseudomonas aeruginosa NCTC 13437; format: cell-based; conditions: Supplementary Table 1; Mueller-Hinton broth; unit inferred
# Procedure: as §3
# [6] = system: Pseudomonas aeruginosa RP73; format: cell-based; conditions: Supplementary Table 1; Mueller-Hinton broth; unit inferred
# Procedure: as §3
# [7] = system: Escherichia coli NCTC 12923; format: cell-based; conditions: Supplementary Table 1; Mueller-Hinton broth; unit inferred
# Procedure: as §3
# [8] = system: EMR Staphylococcus aureus-15 NCTC 13616; format: cell-based; conditions: Supplementary Table 1; Mueller-Hinton broth; unit inferred
# Procedure: as §3
# [9] = system: VS Enterococcus faecalis NCTC 775; format: cell-based; conditions: Supplementary Table 1; Mueller-Hinton broth; unit not given
# [10] = system: VR Enterococcus faecalis NCTC 12201; format: cell-based; conditions: Supplementary Table 1; Mueller-Hinton broth; unit inferred
# Procedure: as §3
# [11] = system: VR Enterococcus faecium NCTC 12204; format: cell-based; conditions: Supplementary Table 1; Mueller-Hinton broth; unit inferred
# Procedure: as §3
# [12] = system: Staphylococcus aureus 1199B; test: Broth microdilution MIC; format: cell-based; conditions: Supplementary Table 1; Mueller-Hinton broth; unit not given
# Procedure: (§2) The antibacterial activity of the peptides was assessed through a modified two-fold broth microdilution assay with modal MICs generated from at least three biological replicate experiments. The method broadly followed EUCAST methodology, with non-cation adjusted Mueller Hinton replacing cation-adjusted Mueller Hinton. Peptides and antibiotics were diluted in a two-fold dilution in media down a 96 well plate. Bacteria were then added, back-diluted from an overnight culture, at a starting concentration of 5 × 10^5 CFU/ml. Plates were incubated, static at 37 °C, for 20 h and the OD600 was determined using a Clariostar plate reader (BMG Labtech).
# [13] = system: Staphylococcus aureus NCTC 6571; test: Broth microdilution MIC; format: cell-based; conditions: Supplementary Table 1; Mueller-Hinton broth; unit not given
# Procedure: as §2
# [14] = system: Staphylococcus aureus USA300; test: Broth microdilution MIC; format: cell-based; conditions: Supplementary Table 1; Mueller-Hinton broth; unit not given
# Procedure: as §2
# P. aeruginosa 372261 = test: Broth microdilution MIC; format: cell-based, Pseudomonas aeruginosa; conditions: Supplementary Table 1; Mueller-Hinton broth; unit not given
# Procedure: as §2
# P. aeruginosa CAS2 = test: Broth microdilution MIC; format: cell-based, Pseudomonas aeruginosa; conditions: Supplementary Table 1; Mueller-Hinton broth; unit not given
# Procedure: as §2
# P. aeruginosa CAS3 = test: Broth microdilution MIC; format: cell-based, Pseudomonas aeruginosa; conditions: Supplementary Table 1; Mueller-Hinton broth; unit not given
# Procedure: as §2
# P. aeruginosa CAS4 = test: Broth microdilution MIC; format: cell-based, Pseudomonas aeruginosa; conditions: Supplementary Table 1; Mueller-Hinton broth; unit not given
# Procedure: as §2
# P. aeruginosa GH12 = test: Broth microdilution MIC; format: cell-based, Pseudomonas aeruginosa; conditions: Supplementary Table 1; Mueller-Hinton broth; unit not given
# Procedure: as §2
# A. baumannii ATCC 17978 = test: Galleria mellonella burn wound infection model; format: in vivo; conditions: 5 mg/kg, topical 1 h after infection; n = 30 larvae; burn and infection untreated 46.0%
# Procedure: Prior to use, G. mellonella were surface decontaminated by immersion in 50% ethanol for 20 s and allowed to dry. All assays were performed on three separate occasions using a group size of 10 larvae; the larvae were kept in separate petri dishes and in the dark in a static incubator at 37 °C for the duration of the experiment. Fresh agar plates of A. baumannii ATCC 17978 were prepared immediately prior to the experiment. Larvae were burnt using the flat head of a nail which was heated in a blue Bunsen burner flame until red hot, cooled for 15 s and superficially applied for 2 s to generate a 2 mm^2 burn. Larvae were infected with a single colony of A. baumannii ATCC 17978 applied directly to the burn site. Treatment was applied topically 1 h after infection in a volume of 5 µl or sterile phosphate buffered saline as a control. Survival was monitored over 96 h.
# Gram-negative bacteria = test: Broth microdilution MIC, Gram-negative panel; format: cell-based; conditions: Mueller–Hinton broth; span of Table 2 Gram-negative isolates
# Procedure: as §2
smiles,measurement,setting,value
CC[C@@H](C)[C@@H](NC(=O)[C@@H](CCCNC(=N)N)NC(=O)[C@@H](CCCNC(=N)N)NC(=O)[C@@H](CC(C)C)NC(=O)[C@H](N)Cc1c[nH]c2ccccc12)C(=O)NCC(=O)N[C@H](CCCCN)C(=O)NCC(=O)N[C@@H](C(=O)N[C@H](CCCCN)C(=O)N[C@@H](C(=O)N[C@@H](C(=O)NCC(=O)NCC(=O)N[C@H](C)C(=O)N[C@H](C)C(=O)N[C@H](CC(C)C)C(=O)N[C@H](CC(=O)O)C(=O)N[C@H](Cc1c[nH]cn1)C(=O)N[C@H](CC(C)C)C(N)=O)[C@H](C)CC)[C@H](C)CC)C(C)C [D-WF1a] (H-[dW][dL][dR][dR][dI]G[dK]G[dV][dK][dI][dI]GG[dA][dA][dL][dD][dH][dL]-NH2; N-terminus assumed),D-WF1a MIC (alone),EMRSA-15 NCTC 13616,512 µg/mL
same,D-WF1a MIC (alone),P. aeruginosa RP73,512 µg/mL
CC(C)C[C@@H](NC(=O)[C@@H](Cc1ccc(O)cc1)NC(=O)[C@@H](Cc1c[nH]cn1)NC(=O)[C@H](NC(=O)[C@@H](CC(C)C)NC(=O)[C@@H](C)NC(=O)[C@@H](C)NC(=O)[C@@H](CCCNC(=N)N)NC(=O)CNC(=O)[C@H](NC(=O)[C@@H](Cc1c[nH]cn1)NC(=O)[C@@H](CCCNC(=N)N)NC(=O)CNC(=O)[C@H](NC(=O)[C@@H](Cc1c[nH]cn1)NC(=O)[C@@H](C)NC(=O)[C@@H](C)NC(=O)[C@@H](CCCNC(=N)N)NC(=O)[C@@H](CCCNC(=N)N)NC(=O)[C@@H](Cc1ccccc1)NC(=O)[C@@H](Cc1ccccc1)NC(=O)[C@@H](CO)NC(=O)CNC(=O)[C@@H](Cc1c[nH]c2ccccc12)NC(=O)CN)C(C)C)C(C)C)[C@H](C)O)C(N)=O [D-pleurocidin-KR] (H-G[dW]G[dS][dF][dF][dR][dR][dA][dA][dH][dV]G[dR][dH][dV]G[dR][dA][dA][dL][dT][dH][dY][dL]-NH2; N-terminus assumed),Pleurocidin MIC (analogue alone),EMRSA-15 NCTC 13616,2 µg/ml
same,Pleurocidin MIC (analogue alone),P. aeruginosa RP73,8-16 µg/ml
CC(C)C[C@@H](NC(=O)[C@@H](Cc1ccc(O)cc1)NC(=O)[C@@H](Cc1c[nH]cn1)NC(=O)[C@H](NC(=O)[C@@H](CC(C)C)NC(=O)[C@@H](C)NC(=O)[C@@H](C)NC(=O)[C@@H](CCCCN)NC(=O)CNC(=O)[C@H](NC(=O)[C@@H](Cc1c[nH]cn1)NC(=O)[C@@H](CCCCN)NC(=O)CNC(=O)[C@H](NC(=O)[C@@H](Cc1c[nH]cn1)NC(=O)[C@@H](C)NC(=O)[C@@H](C)NC(=O)[C@@H](CCCCN)NC(=O)[C@@H](CCCCN)NC(=O)[C@@H](Cc1ccccc1)NC(=O)[C@@H](Cc1ccccc1)NC(=O)[C@@H](CO)NC(=O)CNC(=O)[C@@H](Cc1c[nH]c2ccccc12)NC(=O)CN)C(C)C)C(C)C)[C@H](C)O)C(N)=O [D-pleurocidin] (H-G[dW]G[dS][dF][dF][dK][dK][dA][dA][dH][dV]G[dK][dH][dV]G[dK][dA][dA][dL][dT][dH][dY][dL]-NH2; N-terminus assumed),"Antimicrobial activity of D-enantiomers, Klebsiella pneumoniae NCTC 13368",[1],2 µg/mL
same,"Antimicrobial activity of D-enantiomers, Klebsiella pneumoniae M6",Klebsiella pneumoniae M6,2 µg/mL
same,"Antimicrobial activity of D-enantiomers, Acinetobacter baumannii AYE",[2],2 µg/mL
same,"Antimicrobial activity of D-enantiomers, Acinetobacter baumannii ATCC 17978",[3],1 µg/mL
same,"Antimicrobial activity of D-enantiomers, Pseudomonas aeruginosa PAO1",[4],2 µg/mL
same,"Antimicrobial activity of D-enantiomers, Pseudomonas aeruginosa NCTC 13437",[5],8 µg/mL
same,"Antimicrobial activity of D-enantiomers, P. aeruginosa RP73",[6],16 µg/mL
same,"Antimicrobial activity of D-enantiomers, Escherichia coli NCTC 12923",[7],1 µg/mL
same,"Antimicrobial activity of D-enantiomers, EMR Staphylococcus aureus-15 NCTC 13616",[8],16 µg/mL
same,"Antimicrobial activity of D-enantiomers, VS Enterococcus faecalis NCTC 775",[9],16
same,"Antimicrobial activity of D-enantiomers, VR Enterococcus faecalis NCTC 12201",[10],64 µg/mL
same,"Antimicrobial activity of D-enantiomers, VR Enterococcus faecium NCTC 12204",[11],16 µg/mL
same,"Antimicrobial activity of D-enantiomers, Staphylococcus aureus 1199B",[12],16
same,"Antimicrobial activity of D-enantiomers, Staphylococcus aureus NCTC 6571",[13],16
same,"Antimicrobial activity of D-enantiomers, Staphylococcus aureus USA300",[14],32
same,"Antimicrobial activity of D-enantiomers, P. aeruginosa 372261",P. aeruginosa 372261,4
same,"Antimicrobial activity of D-enantiomers, P. aeruginosa CAS2",P. aeruginosa CAS2,8
same,"Antimicrobial activity of D-enantiomers, P. aeruginosa CAS3",P. aeruginosa CAS3,4
same,"Antimicrobial activity of D-enantiomers, P. aeruginosa CAS4",P. aeruginosa CAS4,8
same,"Antimicrobial activity of D-enantiomers, P. aeruginosa GH12",P. aeruginosa GH12,4
same,Pleurocidin MIC (analogue alone),EMRSA-15 NCTC 13616,8-16 µg/ml
same,Pleurocidin MIC (analogue alone),P. aeruginosa RP73,8-16 µg/ml
CNC(C)C1CCC(N)C(OC2C(N)CC(N)C(OC3OCC(C)(O)C(NC)C3O)C2O)O1 (stereo not drawn) [Gentamicin],Survival % @ 96 h,A. baumannii ATCC 17978,86.7%
C[C@@H](O)[C@H]1C(=O)N2C(C(=O)O)=C(SCCN=CN)C[C@H]12 [Imipenem],Survival % @ 96 h,A. baumannii ATCC 17978,70.0%
C[C@@H](O)[C@H]1C(=O)N2C(C(=O)O)=C(S[C@@H]3CN[C@H](C(=O)N(C)C)C3)[C@H](C)[C@H]12 [Meropenem],Survival % @ 96 h,A. baumannii ATCC 17978,70.0%
CC[C@H](C)[C@H](NC(=O)[C@H](CCCNC(=N)N)NC(=O)[C@H](CCCNC(=N)N)NC(=O)[C@H](CC(C)C)NC(=O)[C@H](Cc1c[nH]c2ccccc12)NC(=O)[C@H](CCCCN)NC(=O)[C@H](CCCNC(=N)N)NC(=O)[C@H](CCCCN)NC(=O)[C@H](CCCNC(=N)N)NC(=O)[C@H](CCCNC(=N)N)NC(=O)CN)C(=O)NCC(=O)N[C@@H](CCCCN)C(=O)NCC(=O)N[C@H](C(=O)N[C@@H](CCCCN)C(=O)N[C@H](C(=O)N[C@H](C(=O)NCC(=O)NCC(=O)N[C@@H](C)C(=O)N[C@@H](C)C(=O)N[C@@H](CC(C)C)C(=O)N[C@@H](CC(=O)O)C(=O)N[C@@H](Cc1c[nH]cn1)C(=O)N[C@@H](CC(C)C)C(N)=O)[C@@H](C)CC)[C@@H](C)CC)C(C)C [WF1a-1] (H-GRRKRKWLRRIGKGVKIIGGAALDHL-NH2),MICs against Gram-negative isolates (range over panel),Gram-negative bacteria,0.25 to 8 µg/mL

# Source: paper PMC11057203, “Synergy between Winter Flounder antimicrobial peptides” (npj Antimicrobials and Resistance, 2023)
